Key:
RAW264.7 [1] = test: Inhibition of LPS-stimulated ROS production in mouse RAW264.7 cells preincubated for 1 hr followed by LPS stimulation for 24 hrs measured after 30 mins by CMH2DCFDA probe-based fluorescence assay; format: functional, cell-based
RAW264.7 [2] = test: Cytotoxicity in mouse RAW264.7 cells assessed as cell viability after 24 hrs by MTS assay; format: cell-based; details: raw264.7, 24 h
[3] = Cytotoxicity in mouse RAW264.7 cells assessed as cell viability at 1 uM after 24 hrs by MTS assay; format: cell-based; details: read-out: Activity
RAW264.7 [4] = test: Inhibition of LPS-stimulated ROS production in mouse RAW264.7 cells after 22 hrs by C-400 fluorescent dye-based assay; format: functional, cell-based; details: RAW264.7, 22 h

| SMILES | IC50 (RAW264.7 [1]) [µM] | Activity (RAW264.7 [2]) | viability at 24 h, 1 µM [3] [%] | IC50 (RAW264.7 [4]) [µM] |
| --- | --- | --- | --- | --- |
| O=C(/C=C/c1ccccc1C(F)(F)F)c1ccccc1 | > 10 | Non-Toxic |  |  |
| O=C(/C=C/c1cccc(C(F)(F)F)c1)c1ccccc1 | > 10 | Non-Toxic |  |  |
| O=C(/C=C/c1ccc(C(F)(F)F)cc1)c1ccccc1 | > 10 | Non-Toxic |  |  |
| O=C(/C=C/c1ccc(F)cc1)c1ccccc1O | > 10 | Non-Toxic |  |  |
| O=C(/C=C/c1ccccc1C(F)(F)F)c1ccccc1O |  |  | < 90 |  |
| O=C(/C=C/c1ccccc1F)c1ccccc1O | > 10 | Non-Toxic |  |  |
| O=C(/C=C/c1cccc(F)c1)c1ccccc1O | > 10 | Non-Toxic |  |  |
| O=C(/C=C/c1ccc(C(F)(F)F)cc1)c1ccccc1O | > 10 | Non-Toxic |  |  |
| O=C(/C=C/c1ccccc1C(F)(F)F)c1ccc(O)cc1 | > 10 | Non-Toxic |  |  |
| O=C(/C=C/c1cccc(F)c1)c1cccc(O)c1 | > 10 | Non-Toxic |  |  |
| O=C(/C=C/c1ccccc1OC(F)(F)F)c1cccc(O)c1 | 1.61 | Non-Toxic |  |  |
| O=C(/C=C/c1ccc(OC(F)(F)F)cc1)c1cccc(O)c1 | > 10 | Non-Toxic |  |  |
| O=C(/C=C/c1cccc(F)c1)c1ccc(O)cc1 | 9.15 | Non-Toxic |  |  |
| O=C(/C=C/c1cccc(OC(F)(F)F)c1)c1ccccc1O |  |  | < 90 |  |
| O=C(/C=C/c1cccc(C(F)(F)F)c1)c1ccccc1O |  |  | < 90 |  |
| O=C(/C=C/c1ccccc1OC(F)(F)F)c1ccccc1 | > 10 | Non-Toxic |  |  |
| O=C(/C=C/c1ccccc1F)c1cccc(O)c1 | > 10 | Non-Toxic |  |  |
| O=C(/C=C/c1ccc(C(F)(F)F)cc1)c1cccc(O)c1 | > 10 | Non-Toxic |  |  |

| SMILES | IC50 (RAW264.7 [1]) [µM] | Activity (RAW264.7 [2]) | viability at 24 h, 1 µM [3] [%] | IC50 (RAW264.7 [4]) [µM] |
| --- | --- | --- | --- | --- |
| O=C(/C=C/c1ccccc1OC(F)(F)F)c1ccc(O)cc1 | 1.34 | Non-Toxic |  |  |
| O=C(/C=C/c1cccc(C(F)(F)F)c1)c1ccc(O)cc1 | 1.44 | Non-Toxic |  |  |
| O=C(/C=C/c1ccccc1F)c1ccccc1 | > 10 | Non-Toxic |  |  |
| O=C(/C=C/c1ccccc1F)c1ccc(O)cc1 | > 10 | Non-Toxic |  |  |
| O=C(/C=C/c1ccc(OC(F)(F)F)cc1)c1ccc(O)cc1 | > 10 | Non-Toxic |  |  |
| O=C(/C=C/c1ccccc1OC(F)(F)F)c1ccccc1O |  |  | < 90 |  |
| O=C(/C=C/c1ccc(OC(F)(F)F)cc1)c1ccccc1 | > 10 | Non-Toxic |  |  |
| O=C(/C=C/c1cccc(C(F)(F)F)c1)c1cccc(O)c1 |  |  | < 90 |  |
| O=C(/C=C/c1ccc(F)cc1)c1cccc(O)c1 | > 10 | Non-Toxic |  |  |
| O=C(/C=C/c1cccc(OC(F)(F)F)c1)c1cccc(O)c1 | > 10 | Non-Toxic |  |  |
| O=C(/C=C/c1cccc(F)c1)c1ccccc1 | > 10 | Non-Toxic |  |  |
| O=C(/C=C/c1cccc(OC(F)(F)F)c1)c1ccccc1 | > 10 | Non-Toxic |  |  |
| O=C(/C=C/c1cccc(OC(F)(F)F)c1)c1ccc(O)cc1 | > 10 | Non-Toxic |  |  |
| O=C(/C=C/c1ccccc1C(F)(F)F)c1cccc(O)c1 | > 10 | Non-Toxic |  |  |
| O=C(/C=C/c1ccc(OC(F)(F)F)cc1)c1ccccc1O | > 10 | Non-Toxic |  |  |
| O=C(/C=C/c1ccc(C(F)(F)F)cc1)c1ccc(O)cc1 | > 10 | Non-Toxic |  |  |
| O=C(/C=C/c1ccc(F)cc1)c1ccc(O)cc1 | > 10 | Non-Toxic |  |  |
| COc1cc(-c2[o+]c3cc(O)cc(O)c3cc2O)cc(OC)c1O [MALVIDIN CHLORIDE] |  |  |  | 9 |
